Reference: patent US8530520B2, “Cycloalkyl-dione derivatives and methods of their use” (The Trustees Of The University Of Pennsylvania, priority 2011, dated 2013)

Target: T1, human TP receptor (Homo sapiens, UniProt P21731)
T1 sequence (P21731 1-343): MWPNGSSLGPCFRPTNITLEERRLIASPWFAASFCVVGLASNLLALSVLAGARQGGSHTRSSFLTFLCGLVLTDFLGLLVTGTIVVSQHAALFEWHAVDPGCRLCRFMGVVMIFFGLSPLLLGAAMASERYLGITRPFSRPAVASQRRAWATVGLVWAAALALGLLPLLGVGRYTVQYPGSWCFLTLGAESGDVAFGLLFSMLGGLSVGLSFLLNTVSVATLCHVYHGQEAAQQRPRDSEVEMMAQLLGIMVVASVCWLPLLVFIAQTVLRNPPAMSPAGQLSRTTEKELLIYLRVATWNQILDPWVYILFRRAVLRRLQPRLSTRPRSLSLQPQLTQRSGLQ
Test: biochemical

SMILES | IC50
O=C1C=C(O)C(Cc2cccc(CCNS(=O)(=O)c3ccc(Cl)cc3)c2)C1 (stereo not drawn) [Compound 41, 4-Chloro-N-(3-((2-hydroxy-4-oxocyclopent-2-en-1-yl)methyl)phenethyl)benzenesulfonamide] | 203 nM
CC1=C(O)C(Cc2cccc(CCNS(=O)(=O)c3ccc(Cl)cc3)c2)CC1=O (stereo not drawn) [Compound 42, 4-Chloro-N-(3-((2-hydroxy-3-methyl-4-oxocyclopent-2-en-1-yl)methyl)phenethyl)-benzenesulfonamide] | 328 nM
O=C1CCC(O)=C1Cc1cccc(CCNS(=O)(=O)c2ccc(Cl)cc2)c1 [Compound 50, 4-Chloro-N-(3-((2-hydroxy-5-oxocyclopent-1-en-1-yl)methyl)phenethyl)benzenesulfonamide] | 11400 nM

Now from value to compound:

IC50 | SMILES
331 nM | O=S(=O)(NCCc1cccc(CCc2nnn[nH]2)c1)c1ccc(Cl)cc1 [Compound 60]
359 nM | O=c1c(O)c(NCc2cccc(CCNS(=O)(=O)c3ccc(Cl)cc3)c2)c1=O [Compound 61]
> 10000 nM | O=S(=O)(NCCc1cccc(CCCO)c1)c1ccc(Cl)cc1 [Compound 59]
